Assay: in vitro
Details: human, hela cells, % viability

SMILES	viability at 28.5 h, 10 µM
Cc1ccc(Cn2cnc3c(cnn3-c3ccc(C)c(C)c3)c2=O)cc1 [CBK287540]	108%
CCOC(=O)C1CCCN(Cc2c[nH]nc2-c2ccc(OC)cc2F)C1 (stereo not shown) [CBK307304]	91.1%
CCC1CN(C(C)=O)CCC1NCc1ccc(OCC(N)=O)cc1 (stereo not shown) [CBK305168]	102%
CCc1csc(C(=Cc2ccc(OC)cc2)C(N)=O)n1 [CBK001010]	86.9%
Clc1cc(Nc2cccc(OCc3ccccc3)c2)n2nccc2n1 [CBK037109]	92.2%
O=C(CCNCCc1c[nH]c(=O)[nH]c1=O)Nc1cccc(Cl)c1 [CBK306889]	86.3%
Clc1ccc(CN2CCN(CCc3ccccc3)CC2)cc1Cl [CBK126420]	96.3%
Cc1ccccc1NC(=O)CCC(=O)N/N=C/c1ccncc1 [CBK262016]	101%
C(=C\c1ccccc1)/CN1CCN(CCCc2ccccc2)CC1 [CBK261897]	90%
O=C(NCCc1ccco1)c1ncoc1-c1ccc(F)cc1 [CBK282247]	104%
c1ccc2sc([C@H]3CCNC3)nc2c1 [CBK289389]	91.2%
Cc1cn(CC(=O)N2CCCC3(CCN(C(=O)c4cc(F)c(F)cc4F)C3)C2)c(=O)[nH]c1=O (stereo not shown) [CBK131561]	101%
O=C1CCC(=O)N1CCOc1nccnc1N1CCNCC1 [CBK074030T]	97.6%
COc1ccccc1NC(=O)COc1cccc(Cl)c1Cl [CBK266029]	106%
Cc1c(Cl)cccc1NC(=S)NNC(=O)C(C)Oc1ccc(F)cc1F (stereo not shown) [CBK266823]	97.8%
C=CCn1c(Cc2csc(NC(=O)c3ccc(C)c(F)c3)n2)n[nH]c1=S [CBK295307]	80.6%
Cc1ncsc1CCC(=O)NCC1CCN(c2ccccc2F)C1 (stereo not shown) [CBK304675]	96.5%
CCCNC(=O)c1sc(Nc2ccc(Cl)cn2)nc1C [CBK287850]	98.4%
COc1ccc(-c2ccccc2NC(=O)c2cccc(CN3CCCC3=O)c2)cc1 [CBK285865]	91.4%
CC(=O)OC(COc1ccc(F)cc1)Cn1cnc2ccccc21 (stereo not shown) [CBK266162]	104%
CCSC(SCC)c1ccnn1-c1ccccc1 [CBK019332]	87.1%
Cc1ccccc1C(NC(=O)C1CCN(C/C=C/c2ccccc2)CC1)c1ncccc1C (stereo not shown) [CBK147980]	102%

SMILES	viability at 28.5 h, 10 µM
CCOC(=O)c1ccc(NC(=S)NC(=O)c2ccc(C)c(C)c2)cc1 [CBK264004]	89.2%
Cc1c(C(=O)N2CC(n3cc(C(C)(C)O)nn3)C2)sc2cccc(F)c12 [CBK306398]	91.4%
Cc1ccc2nc(-c3ccccn3)cc(C(=O)NCc3ccccn3)c2c1 [CBK267782]	86.6%
CC1CCN(C(=O)C2CC(=O)N(c3ccc(C(=O)O)cc3)C2)CC1 (stereo not shown) [CBK286568]	87.6%
Cc1ccc(S(=O)(=O)N(C)CCCC#N)cc1 [CBK085945]	106%
Cc1ccc(O)cc1CC[C@@H]1CC(=O)CC2(C)C1CC[C@]2(O)C(=O)COC(=O)CCC(=O)O (stereo partly shown) [CBK007270]	119%
Cc1cc([N+](=O)[O-])ccc1/N=C\c1ccc(C(=O)O)cc1 [CBK262058]	95.4%
CC(Oc1cccc(Cl)c1)n1cnnc1 (stereo not shown) [CBK022246]	100%
CC(C)[C@@H](CO)Nc1cncc(-c2ccc(O)cc2)n1 [CBK066038]	97.8%
Cc1ccccc1NS(=O)(=O)c1cc(CN2C[C@@H](C)NC[C@@H]2C)c2occc2c1 [CBK103579T]	102%
Cn1nccc1CN1CCOC(c2nc(C(C)(C)C)cs2)C1 (stereo not shown) [CBK304690]	93.7%
OC(CN1CCC(O)(c2cccc(C(F)(F)F)c2)CC1)c1ccccc1 (stereo not shown) [CBK286324]	109%
CCNC(=O)N1C(CC(=O)Nc2cccc(OC)c2)C(=O)NC2CCCCC21 (stereo not shown) [CBK269848]	90.6%
O=C(c1cc[nH]c1)N1CCCC2(CCN(C(=O)c3ccoc3)C2)C1 (stereo not shown) [CBK131629]	105%
O=C1N[C@]2(CCc3ccccc31)CN(Cc1ccccc1)C[C@H]2CO [CBK284795]	106%
COc1ccc([C@@]23CC[C@@H](NC(=O)N(C)c4ccc(Cl)cc4)C[C@@H]2N(C)CC3)cc1OC [CBK045682T]	90.8%
O=C(c1ccc(F)cc1)N1C[C@@H](c2ccsc2)[C@@H]2CN(Cc3ccccc3)CC[C@@H]21 [CBK285635]	94.7%
CC(C)[C@H](CO)Nc1nc(-c2ccc(S(C)(=O)=O)cc2)cnc1N [CBK063718]	110%
CCCCNC(=O)c1ccc2nc(CC)c(N(C)C(=O)C3CCCCC3)n2c1 [CBK145791]	88.9%
CCOC(=O)c1c(C)n(-c2ccc(C)cc2)c2ccc(Oc3ncccc3C#N)cc12 [CBK261310]	109%
COc1cccc(Nc2c(C(=O)N3CCCCC3)cnc3nc(C)ccc23)c1 [CBK287817]	96%
CCN(Cc1ccncc1)C(=O)NCc1ccc(F)cc1 [CBK155146]	96.4%

SMILES	viability at 28.5 h, 10 µM
Cc1cn(C2CC(O)C(CN=[N+]=[N-])O2)c(=O)[nH]c1=O (stereo not shown) [CBK201256]	102%
COCC(=O)N1CCN2C(=O)[C@@H]3C[C@@H](OCc4ccc(F)cc4)CN3C(=O)[C@@H]2C1 [CBK289605]	99.1%
Cc1ccc(C2C3=C(CC(C)(C)CC3=O)Nc3[nH][nH]c(=O)c32)o1 (stereo not shown) [CBK288147]	104%
Cc1cnc(C(=O)NC2(c3ccc(Cl)cc3)CCC2)cn1 [CBK282775]	95.2%
O=S(=O)(Nc1cccc(Br)c1)c1ccc(OC(F)(F)F)cc1 [CBK044369]	114%
Cc1ccccc1-c1nnc(-c2ccc(C(=O)N=c3sccn3C)cc2)o1 [CBK298283]	97.1%
COc1cc(CN2CCC[C@@H]2CN2CCCC2)cc(OC)c1OC [CBK149100]	105%
CC(C)(C)NCC(O)c1ccc(O)c2c1C1CCC2CC1 (stereo not shown) [CBK013269C]	93.9%
CN1CCN(CC2(Cn3ccnc3-c3ccc(C(=O)O)cc3)CC2)CC1 [CBK307641]	75.1%
CC(C)NC(=O)N1CCc2sccc2C1c1ccc(Cl)cc1 (stereo not shown) [CBK018247]	108%
CCCn1cnnc1C(C)NC(=O)Nc1ccnn1CC1CCCCC1 (stereo not shown) [CBK306800]	105%
Cc1c(C(=O)CCN(C)C2CC=C(c3ccc(F)cc3)CC2)cnn1CCO (stereo not shown) [CBK023799]	90.4%
COc1cc(NC(=O)Nc2ccccc2OC)c(OC)cc1Cl [CBK270329]	95.7%
CC(C)(C)OC(=O)NC1CCN(C(=O)CCC(=O)O)CC1 [CBK286604]	95.9%
O=C(NCCCn1ccnc1)c1cc(-c2ccccc2Cl)nc2ccccc12 [CBK262656]	95.2%
CCC1(CC)OC(NC23CC4CC(CC(O)(C4)C2)C3)=NC1=O [CBK107938]	99.1%
COc1cc(OC)cc(C(=O)N[C@@H]2CC[C@@]3(c4ccc(OC)c(OC)c4)CCN(C)[C@H]3C2)c1 [CBK074242T]	115%
CC(C)NC(=O)C1CCCN(c2nc3ccccc3n2C)C1 (stereo not shown) [CBK282373]	109%
CN1CCC(N2CCN(C(=O)c3cncc(-c4ccc(C(=O)N5CCOCC5)cc4)c3)CC2)CC1 [CBK158600]	115%
Cc1nc2ccccc2c(C(=O)O)c1-c1ccccc1 [CBK274187]	91.5%
Cn1cc(CNC(=O)Nc2cccc(CN3CCCCC3=O)c2)cn1 [CBK305062]	91.4%
O=C(Nc1ccc2[nH]ccc2c1)c1cnc(-c2ccc(F)cc2)c(-c2ccncc2)c1 [CBK037451]	91.9%

SMILES	viability at 28.5 h, 10 µM
CC(=O)c1nnnn1C(C)(C)Cc1ccccc1 [CBK022088]	91.3%
COC(=O)c1ccsc1NS(=O)(=O)c1ccc(C)c([N+](=O)[O-])c1 [CBK039061]	92.2%
CCN(CC)C(=O)CN1C2CCC1CC(O)(c1ccco1)C2 (stereo not shown) [CBK284094]	106%
COc1ccc(CNC(=O)NC(=O)C2CCN(S(C)(=O)=O)CC2)c(OC)c1 [CBK034861]	89.4%
COc1ccc(CC(=O)N2CCCC(c3nccnc3-c3cccc(C)c3)C2)cc1 (stereo not shown) [CBK286137]	94.1%
CC(=O)c1cccc(NC(=O)Cn2nc(N3CCSCC3)ccc2=O)c1 [CBK307625]	102%
CN1CCCN(Cc2ccc3c(c2)c(=O)c(C(=O)NCc2ccc(Cl)cc2)cn3C)CC1 [CBK018019]	82.8%
NC1CCC(NC(=O)c2cnc(-c3ccc(Cl)cc3)c(-c3ccco3)c2)CC1 (stereo not shown) [CBK037563]	105%
COc1ccc(N2C(=O)CSC23C(=O)Nc2ccc(Br)cc23)cc1 (stereo not shown) [CBK093454]	96.6%
COc1ccc(NS(=O)(=O)c2cc(C(=O)O)c(Cl)cc2Cl)cc1 [CBK095077]	89.7%
Cc1cccc2c3c([nH]c12)C1(CCCN(C/C=C\c2ccccc2)C1)N(C=O)CC3 (stereo not shown) [CBK040265]	92.4%
Clc1nc2ccccc2nc1N1CCCC1 [CBK083596]	101%
Cn1nc(C(Cc2ccccc2)NC(=O)c2ccco2)c2cccnc21 (stereo not shown) [CBK285223]	97.1%
O=[N+]([O-])c1cnc(NS(=O)(=O)c2ccc(-c3cc(C(F)(F)F)on3)s2)s1 [CBK067545]	103%
CN1CCOCC(CNC(=O)c2ccc(-c3cnc(N)nc3)cc2)C1 (stereo not shown) [CBK307119]	100%
COC(=O)n1c(=O)oc2ccc(Cl)cc21 [CBK026774]	101%
Cc1nc(-c2cccnc2)[nH]c(=O)c1CC(=O)N1CCSCC1 [CBK305944]	90.7%
CC(=O)Nc1cccc(NS(=O)(=O)c2ccc(N3CCNCC3)c3ccccc23)c1 [CBK028702C]	105%
C=Cn1cc(CN2C3CCC2CC(O)(c2ccc(C)cc2)C3)c(C)n1 (stereo not shown) [CBK283015]	90.5%
O=C(Nc1cccc(CCc2ccccn2)c1)c1ccc([N+](=O)[O-])cc1 [CBK269653]	86.9%
O=C(Nc1ccc(F)cc1)c1c(NS(=O)(=O)Cc2ccccc2[N+](=O)[O-])sc2c1CCCC2 [CBK028654]	85.3%
O=C(CN1CCN(S(=O)(=O)N2CCCCCC2)CC1)Nc1cc(Cl)ccc1Cl [CBK269587]	90.1%

From paper PMC12040169 (PLOS Biology, 2025)
